biological target: T1, androgen receptors (Homo sapiens, UniProt P10275); assay: receptor binding affinities to the androgen receptors (RBA); details: receptor binding affinity to the androgen receptors; R 1881 (Methyltrienolone) = 100
T1 sequence (P10275 1-920): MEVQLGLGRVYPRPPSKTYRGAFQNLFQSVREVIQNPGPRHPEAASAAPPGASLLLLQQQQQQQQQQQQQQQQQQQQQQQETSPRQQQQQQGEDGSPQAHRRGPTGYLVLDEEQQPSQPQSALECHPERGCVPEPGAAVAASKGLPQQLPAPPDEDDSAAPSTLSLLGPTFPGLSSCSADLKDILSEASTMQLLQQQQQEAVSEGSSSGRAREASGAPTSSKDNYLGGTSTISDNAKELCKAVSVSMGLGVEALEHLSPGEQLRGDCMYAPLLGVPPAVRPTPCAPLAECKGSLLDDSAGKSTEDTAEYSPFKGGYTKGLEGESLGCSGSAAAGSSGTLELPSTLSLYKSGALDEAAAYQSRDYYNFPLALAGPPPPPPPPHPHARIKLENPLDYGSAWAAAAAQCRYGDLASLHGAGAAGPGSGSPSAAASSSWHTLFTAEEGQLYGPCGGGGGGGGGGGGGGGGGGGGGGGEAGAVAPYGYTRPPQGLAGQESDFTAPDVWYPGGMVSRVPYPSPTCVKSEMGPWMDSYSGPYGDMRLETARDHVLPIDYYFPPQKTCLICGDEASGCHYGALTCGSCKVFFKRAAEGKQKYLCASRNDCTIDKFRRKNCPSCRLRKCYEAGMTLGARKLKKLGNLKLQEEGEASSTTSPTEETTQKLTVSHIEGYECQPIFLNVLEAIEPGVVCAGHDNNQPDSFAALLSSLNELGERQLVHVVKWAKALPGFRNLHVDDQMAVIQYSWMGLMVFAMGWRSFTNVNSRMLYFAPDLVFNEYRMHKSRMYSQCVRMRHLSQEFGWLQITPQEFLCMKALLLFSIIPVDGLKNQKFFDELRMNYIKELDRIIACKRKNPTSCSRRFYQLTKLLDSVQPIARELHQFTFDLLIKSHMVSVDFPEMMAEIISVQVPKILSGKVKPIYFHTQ

Row | SMILES | RBA
1 | CC12CCC3C4CCC(=O)C(O)=C4CCC3C1CCC2(O)C(F)(F)C(F)(F)F (stereo not drawn) [17β,4-Dihydroxy-17α-pentafluoroethyl-estr-4-en-3-one] | 20%
2 | CC12CCC3C4CCC(=O)C(O)=C4CCC3C1CCC2(O)C(F)(F)F (stereo not drawn) [17β,4-Dihydroxy-17α-trifluoromethyl-estr-4-en-3-one] | 15%
3 | CC12CCC(=O)C=C1CCC1C2C(O)CC2(C)C1CCC2(O)C(F)(F)F (stereo not drawn) [17β,11β-Dihydroxy-17α-trifluoromethyl-androst-4-en-3-one] | 8.6%
4 | CC12CCC3C4CCC(=O)C(Cl)=C4CCC3C1CCC2(O)C(F)(F)C(F)(F)F (stereo not drawn) [17β-Hydroxy-17α-pentafluoroethyl-4-chloro-estr-4-en-3-one] | 27%
5 | CC1CC2=CC(=O)CCC2C2CCC3(C)C(CCC3(O)C(F)(F)C(F)(F)F)C12 (stereo not drawn) [17β-Hydroxy-17α-pentafluoroethyl-7α-methyl-estr-4-en-3-one] | 34%
6 | CC12CCC3C4CCC(=O)C=C4CCC3C1CCC2(O)C(F)(F)C(F)(F)F (stereo not drawn) [17β-Hydroxy-17α-pentafluoroethyl-estr-4-en-3-one] | 21%
7 | CC12CCC(=O)C(Cl)=C1CCC1C2CCC2(C)C1CCC2(O)C(F)(F)F (stereo not drawn) [17β-Hydroxy-17α-trifluoromethyl-4-chloro-androst-4-en-3-one] | 20%
8 | CC12CCC3C4CCC(=O)C(Cl)=C4CCC3C1CCC2(O)C(F)(F)F (stereo not drawn) [17β-Hydroxy-17α-trifluoromethyl-4-chloro-estr-4-en-3-one] | 41%
9 | CC1CC2=CC(=O)CCC2(C)C2CCC3(C)C(CCC3(O)C(F)(F)F)C12 (stereo not drawn) [17β-Hydroxy-17α-trifluoromethyl-7α-methyl-androst-4-en-3-one] | 30%
10 | CC1CC2=CC(=O)CCC2C2CCC3(C)C(CCC3(O)C(F)(F)F)C12 (stereo not drawn) [17β-Hydroxy-17α-trifluoromethyl-7α-methyl-estr-4-en-3-one] | 40%
11 | C[C@]12CCC(=O)C=C1CC[C@@H]1[C@@H]2CC[C@@]2(C)[C@H]1CC[C@@]2(O)C(F)(F)F [17β-Hydroxy-17α-trifluoromethyl-androst-4-en-3-one] | 9.4%
12 | C[C@]1(O)CC[C@H]2[C@@H]3CCC4=CC(=O)CCC4=C3C=C[C@@]21C [R 1881 (Methyltrienolone), Methyltrienolone, reference compound] | 100%

— US20040024231A1, “17Alpha fluoroalkyl steroids, method for producing the same and pharmaceutical compositions containing said compounds” (priority 2000, published 2004)
